Source: the Kinase Knowledgebase extract (Sharma et al. 2016)
“And” between values parts separate entries of the source, which are not always exact repeats. Equal entries are not always repeated.

What was measured:
[1] = biological target: PIK3CG (human) (UniProt P48736); assay: Enzyme Assay
[2] = biological target: PIK3CD (Human) (UniProt O00329); assay: Enzyme Assay
[3] = biological target: PIK3CD (Human) (UniProt O00329); assay: Cell-Based Assay; settings: rat-1
[4] = biological target: PIK3CB (Human) (UniProt P42338); assay: Enzyme Assay
[5] = biological target: PIK3CA (human) (UniProt P42336); assay: Enzyme Assay
[6] = biological target: PIK3CB (Human) (UniProt P42338); assay: Cell-Based Assay; settings: rat-1
[7] = biological target: PIK3CA (human), P42336 [H1047R]; assay: Cell-Based Assay; settings: detroit562
[8] = biological target: PIK3CA (human) (UniProt P42336); assay: Cell-Based Assay; settings: rat-1

PIK3CA (human), P42336 [H1047R], sequence (P42336 whole entry H1047R, looked up): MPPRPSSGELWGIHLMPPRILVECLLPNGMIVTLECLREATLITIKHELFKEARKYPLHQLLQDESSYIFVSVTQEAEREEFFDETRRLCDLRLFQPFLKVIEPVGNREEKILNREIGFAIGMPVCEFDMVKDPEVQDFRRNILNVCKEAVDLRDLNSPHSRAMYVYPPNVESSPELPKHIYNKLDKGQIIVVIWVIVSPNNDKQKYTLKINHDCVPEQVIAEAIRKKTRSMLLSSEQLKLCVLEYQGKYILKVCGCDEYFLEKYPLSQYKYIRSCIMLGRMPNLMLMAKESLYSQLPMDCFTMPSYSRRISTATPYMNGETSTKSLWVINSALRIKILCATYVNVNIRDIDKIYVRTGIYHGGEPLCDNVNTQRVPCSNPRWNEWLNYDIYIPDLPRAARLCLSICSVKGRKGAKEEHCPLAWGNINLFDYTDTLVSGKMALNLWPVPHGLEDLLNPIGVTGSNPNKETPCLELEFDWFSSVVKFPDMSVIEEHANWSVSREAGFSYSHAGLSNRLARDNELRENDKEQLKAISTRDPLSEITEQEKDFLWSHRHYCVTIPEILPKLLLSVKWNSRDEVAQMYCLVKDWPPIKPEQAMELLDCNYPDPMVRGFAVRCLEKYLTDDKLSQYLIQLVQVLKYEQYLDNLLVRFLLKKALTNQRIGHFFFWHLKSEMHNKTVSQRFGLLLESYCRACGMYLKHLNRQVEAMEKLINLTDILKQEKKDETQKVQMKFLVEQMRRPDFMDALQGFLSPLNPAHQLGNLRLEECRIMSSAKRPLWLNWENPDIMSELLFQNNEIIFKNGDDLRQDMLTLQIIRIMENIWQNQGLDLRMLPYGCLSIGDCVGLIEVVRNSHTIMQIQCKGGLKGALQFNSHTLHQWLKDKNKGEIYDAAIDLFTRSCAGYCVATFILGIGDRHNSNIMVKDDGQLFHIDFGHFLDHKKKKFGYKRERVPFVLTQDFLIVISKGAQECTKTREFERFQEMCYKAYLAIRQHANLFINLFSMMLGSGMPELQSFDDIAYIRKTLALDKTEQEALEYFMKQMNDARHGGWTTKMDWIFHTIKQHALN
PIK3CG (human), sequence (P48736 whole entry, looked up): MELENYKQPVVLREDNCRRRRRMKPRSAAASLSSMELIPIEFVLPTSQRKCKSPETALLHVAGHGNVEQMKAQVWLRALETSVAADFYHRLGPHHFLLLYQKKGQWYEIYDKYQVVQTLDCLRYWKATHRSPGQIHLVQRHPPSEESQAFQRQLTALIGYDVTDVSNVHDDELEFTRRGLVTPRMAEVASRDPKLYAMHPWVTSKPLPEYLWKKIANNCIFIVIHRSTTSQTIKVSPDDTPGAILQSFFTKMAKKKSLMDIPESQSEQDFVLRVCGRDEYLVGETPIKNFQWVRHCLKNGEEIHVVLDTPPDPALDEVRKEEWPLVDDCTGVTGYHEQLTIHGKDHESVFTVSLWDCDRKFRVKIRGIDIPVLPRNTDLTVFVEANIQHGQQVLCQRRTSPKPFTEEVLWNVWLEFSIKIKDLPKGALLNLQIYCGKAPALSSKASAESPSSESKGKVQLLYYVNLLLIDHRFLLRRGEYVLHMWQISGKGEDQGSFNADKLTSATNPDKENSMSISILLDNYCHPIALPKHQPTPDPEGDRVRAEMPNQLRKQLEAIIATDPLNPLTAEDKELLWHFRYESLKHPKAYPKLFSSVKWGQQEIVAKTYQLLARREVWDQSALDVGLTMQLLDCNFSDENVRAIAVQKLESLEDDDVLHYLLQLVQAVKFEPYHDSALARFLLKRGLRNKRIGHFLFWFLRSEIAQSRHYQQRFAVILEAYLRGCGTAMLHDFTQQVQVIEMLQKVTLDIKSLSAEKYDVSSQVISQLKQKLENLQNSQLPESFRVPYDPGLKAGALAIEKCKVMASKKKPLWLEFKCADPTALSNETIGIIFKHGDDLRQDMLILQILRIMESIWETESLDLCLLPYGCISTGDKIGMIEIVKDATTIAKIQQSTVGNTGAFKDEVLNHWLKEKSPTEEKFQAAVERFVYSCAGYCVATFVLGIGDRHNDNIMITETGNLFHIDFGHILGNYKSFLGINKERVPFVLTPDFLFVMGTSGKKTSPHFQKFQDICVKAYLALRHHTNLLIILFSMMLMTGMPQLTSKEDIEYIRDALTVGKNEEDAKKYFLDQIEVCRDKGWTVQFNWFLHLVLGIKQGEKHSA
PIK3CB (Human), sequence (P42338 whole entry, looked up): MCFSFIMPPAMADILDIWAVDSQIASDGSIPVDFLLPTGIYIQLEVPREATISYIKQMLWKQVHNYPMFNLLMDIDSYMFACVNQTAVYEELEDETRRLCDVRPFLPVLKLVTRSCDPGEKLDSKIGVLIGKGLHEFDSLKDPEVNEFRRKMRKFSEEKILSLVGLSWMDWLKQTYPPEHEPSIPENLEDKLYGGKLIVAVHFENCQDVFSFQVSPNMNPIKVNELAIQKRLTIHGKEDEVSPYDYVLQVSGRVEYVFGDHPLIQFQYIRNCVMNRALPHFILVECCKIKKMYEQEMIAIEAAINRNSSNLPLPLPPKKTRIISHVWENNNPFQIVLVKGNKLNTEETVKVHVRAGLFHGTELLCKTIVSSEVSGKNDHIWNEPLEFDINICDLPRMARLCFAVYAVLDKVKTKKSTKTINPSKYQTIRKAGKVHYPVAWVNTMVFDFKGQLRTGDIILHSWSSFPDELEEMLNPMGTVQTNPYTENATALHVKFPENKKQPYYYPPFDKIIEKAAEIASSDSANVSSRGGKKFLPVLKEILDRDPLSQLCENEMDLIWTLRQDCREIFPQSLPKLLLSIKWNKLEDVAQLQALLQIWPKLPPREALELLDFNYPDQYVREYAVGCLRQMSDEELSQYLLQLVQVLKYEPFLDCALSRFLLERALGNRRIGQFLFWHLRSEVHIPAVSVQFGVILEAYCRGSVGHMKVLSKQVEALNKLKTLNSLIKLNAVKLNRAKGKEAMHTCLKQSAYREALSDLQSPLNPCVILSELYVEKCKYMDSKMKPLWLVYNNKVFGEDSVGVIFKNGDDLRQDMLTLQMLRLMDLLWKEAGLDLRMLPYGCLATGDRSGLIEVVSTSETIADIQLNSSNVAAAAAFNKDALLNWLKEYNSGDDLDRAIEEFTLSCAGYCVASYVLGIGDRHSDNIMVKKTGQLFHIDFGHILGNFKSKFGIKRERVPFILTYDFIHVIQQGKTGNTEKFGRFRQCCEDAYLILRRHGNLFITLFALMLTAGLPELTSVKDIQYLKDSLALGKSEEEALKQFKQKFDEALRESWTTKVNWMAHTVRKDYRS
PIK3CD (Human), sequence (O00329 whole entry, looked up): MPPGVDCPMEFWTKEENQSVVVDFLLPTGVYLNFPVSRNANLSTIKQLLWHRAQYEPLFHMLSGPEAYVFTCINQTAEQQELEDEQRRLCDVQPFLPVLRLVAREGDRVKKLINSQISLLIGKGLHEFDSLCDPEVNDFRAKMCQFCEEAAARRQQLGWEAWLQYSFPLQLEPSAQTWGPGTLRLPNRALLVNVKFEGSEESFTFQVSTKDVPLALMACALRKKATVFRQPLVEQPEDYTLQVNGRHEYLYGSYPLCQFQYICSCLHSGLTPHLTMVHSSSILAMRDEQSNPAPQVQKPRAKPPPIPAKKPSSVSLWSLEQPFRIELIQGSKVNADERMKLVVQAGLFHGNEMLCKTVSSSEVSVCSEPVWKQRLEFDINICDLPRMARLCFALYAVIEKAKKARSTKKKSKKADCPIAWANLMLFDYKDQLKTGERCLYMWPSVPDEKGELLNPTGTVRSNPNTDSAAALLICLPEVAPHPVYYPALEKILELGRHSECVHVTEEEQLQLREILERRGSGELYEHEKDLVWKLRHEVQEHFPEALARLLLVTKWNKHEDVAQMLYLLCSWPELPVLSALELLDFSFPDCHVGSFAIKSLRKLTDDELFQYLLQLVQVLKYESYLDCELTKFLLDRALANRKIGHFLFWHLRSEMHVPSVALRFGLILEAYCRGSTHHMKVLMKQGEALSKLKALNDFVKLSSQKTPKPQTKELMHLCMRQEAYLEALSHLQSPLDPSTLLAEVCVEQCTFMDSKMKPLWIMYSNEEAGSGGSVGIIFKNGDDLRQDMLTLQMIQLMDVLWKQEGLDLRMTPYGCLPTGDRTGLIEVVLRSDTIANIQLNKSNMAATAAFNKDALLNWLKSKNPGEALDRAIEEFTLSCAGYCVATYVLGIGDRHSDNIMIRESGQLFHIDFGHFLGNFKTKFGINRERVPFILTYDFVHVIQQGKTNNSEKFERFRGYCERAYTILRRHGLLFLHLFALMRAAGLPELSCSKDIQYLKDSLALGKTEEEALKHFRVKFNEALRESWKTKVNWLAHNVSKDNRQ
PIK3CA (human), sequence (P42336 whole entry, looked up): as the sequence (P42336 whole entry H1047R, looked up) above, with R1047H counted along it

Nc1ncc(-c2cc(N3CCOCC3)nc(N3CCOCC3)n2)c(C(F)(F)F)n1 gave an IC50 [1] of 0.315 µM, an IC50 [2] of 0.024 µM and an IC50 [3] of 0.139 µM.

In the case of Nc1cc(C(F)(F)F)c(-c2cc(N3CCN(c4ccccc4)C3=O)nc(N3CCOCC3)n2)cn1, the IC50 [4] is reported as 0.236 µM, the IC50 [1] is reported as 7.35 µM and the IC50 [2] is reported as 1.98 µM. It also gave an IC50 [5] of 0.091 µM, an IC50 [6] of 1.58 µM and an IC50 [3] of 1.47 µM. The IC50 [7] was 4.55 µM and 2.81 µM and the IC50 [8] was 0.606 µM.

With Nc1ncc(-c2cc(N3CCOC(c4ccccc4)C3)nc(N3CCOCC3)n2)c(C(F)(F)F)n1 (configuration not stated) the IC50 [4] was 0.027 µM, the IC50 [1] was 0.17 µM and the IC50 [2] was 0.11 µM. The IC50 [5] was 0.015 µM, the IC50 [6] was greater than 10 µM and the IC50 [3] was 0.105 µM. The IC50 [7] was 2.39 µM and 1.37 µM and the IC50 [8] was greater than 10 µM.

Compound Nc1ncc(-c2cc(N3C(=O)O[C@@H](c4ccc(OCCO)cc4)[C@@H]3CO)nc(N3CCOCC3)n2)c(C(F)(F)F)n1 has an IC50 [6] of less than 0.003 µM and an IC50 [3] of less than 0.003 µM.

Nc1cc(C(F)(F)F)c(-c2cc(N3CCCCC3=O)nc(N3CCOCC3)n2)cn1 was tested, and the IC50 [4] was 0.237 µM, the IC50 [1] was 3.36 µM and the IC50 [2] was 0.848 µM. The IC50 [5] was 0.094 µM, the IC50 [6] was 1.54 µM and the IC50 [3] was 1.04 µM. For the same compound, the IC50 [7] was 4.41 µM and 3.08 µM and the IC50 [8] was 0.369 µM.

Compound Nc1cc(C(F)(F)F)c(-c2cc(N3CCC(=O)CC3)nc(N3CCOCC3)n2)cn1 has an IC50 [4] of 1.07 µM, an IC50 [1] of 4.46 µM and an IC50 [2] of 1.22 µM. It also gave an IC50 [5] of 0.327 µM, an IC50 [6] of 5.31 µM and an IC50 [3] of 6.54 µM. The IC50 [7] was 3.3 µM and the IC50 [8] was 1.73 µM.

C[C@H]1[C@H](c2nccs2)OC(=O)N1c1cc(-c2cnc(N)nc2C(F)(F)F)nc(N2CCOCC2)n1 was tested, and the IC50 [7] was 0.44 µM and 0.598 µM.

Compound CC[C@@H]1[C@@H](c2cccc(OC)c2)OC(=O)N1c1cc(-c2cnc(N)nc2C(F)(F)F)nc(N2CCOCC2)n1 has an IC50 [1] of 7 µM.

With COCCOc1ccc([C@@H]2OC(=O)N(c3cc(-c4cnc(N)nc4C(F)(F)F)nc(N4CCOCC4)n3)[C@H]2CO)cc1 the IC50 [3] was 0.004 µM.

Compound CC[C@H]1[C@H](c2ccc(OC)cc2)OC(=O)N1c1cc(-c2cnc(N)nc2C(F)(F)F)nc(N2CCOCC2)n1 has an IC50 [4] of 0.096 µM and an IC50 [1] of 5.8 µM.
